Like-named read-outs stand apart in the source and are kept apart here.
Experiments:
H526 tumors = assay: In vivo xenograft, human lung (SCLC) H526
Procedure: Female athymic nu/nu mice (Harlan Laboratories Models, S. L. Barcelona, Spain or Envigo, Spain) were utilized for all experiments. Animal were housed in individually ventilated cages Sealsafe® Plus, Techniplast S.P.A.), up to ten per cage on a 12-hour light-dark cycle at 21-23° C. and 40-60% humidity. Mice were allowed free access to irradiated standard rodent diet (Tecklad 2914C) and sterilized water. Animals were acclimated for at least 5 days prior to tumor implantation with a tumor cell suspension.
H526 cells were grown as a suspension and maintained by addition of fresh medium, as the cell density increases, every 2 to 3 days. Every week, culture was reestablished by centrifugation of the suspension with subsequent resuspension in fresh medium at a concentration of 1×10^5 cell/mL. Each animal was subcutaneously implanted (on the right flank using 26 G needle and a 1 cc syringe) at 4-6 weeks of age with 5×10^6 H526 cells suspended in 0.05 mL of a solution consisting of 50% Matrigel® (Corning Incorporated Life Sciences) and 50% medium without serum or antibiotics.
(§1) Treatment tolerability was assessed by monitoring body weight evolution, clinical signs of systemic toxicity, as well as evidences of local damage in the injection site.
(§2) Treatments producing >20% lethality and/or 20% net body weight loss were considered toxic.

Procedure for A2780 tumors: Female athymic nu/nu mice (Harlan Laboratories Models, S. L. Barcelona, Spain or Envigo, Spain) were utilized for all experiments. Animal were housed in individually ventilated cages Sealsafe® Plus, Techniplast S.P.A.), up to ten per cage on a 12-hour light-dark cycle at 21-23° C. and 40-60% humidity. […] Animals were acclimated for at least 5 days prior to tumor implantation with a tumor cell suspension.
Culture cells were passaged every 3 to 5 days upon reaching confluence. Each animal was subcutaneously implanted (on the right flank using 26 G needle and a 1 cc syringe) at 4-6 weeks of age with 10×10^6 A2780 cells suspended in 0.05 mL of a solution consisting of 50% Matrigel® (Corning Incorporated Life Sciences) and 50% medium without serum or antibiotics.
as §1
In xenograft studies with other cell lines: • Tumor volume was calculated using the equation (a·b^2)/2, where a: length (longest diameter) and b: width (shortest diameter) were measured in mm by using digital caliper (Fowler Sylvac, S235PAT).
as §2

COc1c(C)cc2c(c1O)[C@@H]1[C@@H]3[C@@H]4SC[C@]5(N[C@@H](C)Cc6c5[nH]c5ccccc65)C(=O)OC[C@@H](c5c6c(c(C)c(OC(C)=O)c54)OCO6)N3[C@@H](O)[C@H](C2)N1C [D]
Median Tumor Volume (A2780 tumors; Table 26, Day 0, iv Days 0, 7, 14): 190.1 mm^3
Median Tumor Volume (A2780 tumors; Table 26, Day 3, iv Days 0, 7, 14): 319.6 mm^3
Median Tumor Volume (A2780 tumors; Table 26, Day 5, iv Days 0, 7, 14): 514.4 mm^3
Median Tumor Volume (A2780 tumors; Table 26, Day 7, iv Days 0, 7, 14): 897.4 mm^3
Median Tumor Volume (A2780 tumors; Table 26, Day 10, iv Days 0, 7, 14): 1239.8 mm^3
Median Tumor Volume (A2780 tumors; Table 26, Day 12, iv Days 0, 7, 14): 1656.2 mm^3
Median Tumor Volume (A2780 tumors; Table 26, Day 14, iv Days 0, 7, 14): 1951.7 mm^3
Median Tumor Volume (A2780 tumors; Table 26, Day 17, iv Days 0, 7, 14): 2121.7 mm^3
Median Tumor Volume (A2780 tumors; Table 26, Day 19, iv Days 0, 7, 14): 2068.6 mm^3
Median Tumor Volume (A2780 tumors; iv, 0.5 mg/kg, 0 h): 168.8 mm^3
Median Tumor Volume (A2780 tumors; iv, 0.5 mg/kg, 48 h): 225.7 mm^3
Median Tumor Volume (A2780 tumors; iv, 0.5 mg/kg, 120 h): 256.6 mm^3
Median Tumor Volume (A2780 tumors; iv, 0.5 mg/kg, 168 h): 473.8 mm^3
Median Tumor Volume (A2780 tumors; iv, 0.5 mg/kg, 336 h): 1129.3 mm^3
Median Tumor Volume (A2780 tumors; iv, 0.5 mg/kg, 384 h): 1198.6 mm^3
Median Tumor Volume (A2780 tumors; iv, 0.5 mg/kg, 456 h): 1649.6 mm^3
Median Tumor Volume (A2780 tumors; iv, 0.5 mg/kg, 504 h): 2025.0 mm^3
Median Tumor Volume (H526 tumors; Table 32, Day 0.0, iv Days 0, 7, 14, 12-R 0.05 mg/kg, Compound D 0.5 mg/kg): 216.1 mm^3
Median Tumor Volume (H526 tumors; Table 32, Day 2.0, iv Days 0, 7, 14, 12-R 0.05 mg/kg, Compound D 0.5 mg/kg): 240.9 mm^3
Median Tumor Volume (H526 tumors; Table 32, Day 4.0, iv Days 0, 7, 14, 12-R 0.05 mg/kg, Compound D 0.5 mg/kg): 99.3 mm^3
Median Tumor Volume (H526 tumors; Table 32, Day 7.0, iv Days 0, 7, 14, 12-R 0.05 mg/kg, Compound D 0.5 mg/kg): 56.7 mm^3
Median Tumor Volume (H526 tumors; Table 32, Day 9.0, iv Days 0, 7, 14, 12-R 0.05 mg/kg, Compound D 0.5 mg/kg): 62.5 mm^3
Median Tumor Volume (H526 tumors; Table 32, Day 11.0, iv Days 0, 7, 14, 12-R 0.05 mg/kg, Compound D 0.5 mg/kg): 62.5 mm^3
Median Tumor Volume (H526 tumors; Table 32, Day 14.0, iv Days 0, 7, 14, 12-R 0.05 mg/kg, Compound D 0.5 mg/kg): 32.0 mm^3
Median Tumor Volume (H526 tumors; Table 32, Day 16.0, iv Days 0, 7, 14, 12-R 0.05 mg/kg, Compound D 0.5 mg/kg): 4.0 mm^3
Median Tumor Volume (H526 tumors; Table 32, Day 21.0, iv Days 0, 7, 14, 12-R 0.05 mg/kg, Compound D 0.5 mg/kg): 4.0 mm^3
Median Tumor Volume (H526 tumors; Table 32, Day 28.0, iv Days 0, 7, 14, 12-R 0.05 mg/kg, Compound D 0.5 mg/kg): 4.0 mm^3
Median Tumor Volume (H526 tumors; Table 32, Day 35.0, iv Days 0, 7, 14, 12-R 0.05 mg/kg, Compound D 0.5 mg/kg): 4.0 mm^3
Median Tumor Volume (H526 tumors; Table 32, Day 42.0, iv Days 0, 7, 14, 12-R 0.05 mg/kg, Compound D 0.5 mg/kg): 4.0 mm^3
Median Tumor Volume (H526 tumors; Table 32, Day 49.0, iv Days 0, 7, 14, 12-R 0.05 mg/kg, Compound D 0.5 mg/kg): 4.0 mm^3
Median Tumor Volume (H526 tumors; Table 56, Day 0, iv weekly, 47-R 0.1 mg/Kg, Compound D 0.5 mg/Kg): 216.1 mm^3
Median Tumor Volume (H526 tumors; Table 56, Day 2, iv weekly, 47-R 0.1 mg/Kg, Compound D 0.5 mg/Kg): 240.9 mm^3
Median Tumor Volume (H526 tumors; Table 56, Day 4, iv weekly, 47-R 0.1 mg/Kg, Compound D 0.5 mg/Kg): 99.3 mm^3
Median Tumor Volume (H526 tumors; Table 56, Day 7, iv weekly, 47-R 0.1 mg/Kg, Compound D 0.5 mg/Kg): 56.7 mm^3
Median Tumor Volume (H526 tumors; Table 56, Day 9, iv weekly, 47-R 0.1 mg/Kg, Compound D 0.5 mg/Kg): 62.5 mm^3
Median Tumor Volume (H526 tumors; Table 56, Day 11, iv weekly, 47-R 0.1 mg/Kg, Compound D 0.5 mg/Kg): 62.5 mm^3
Median Tumor Volume (H526 tumors; Table 56, Day 14, iv weekly, 47-R 0.1 mg/Kg, Compound D 0.5 mg/Kg): 32.0 mm^3
Median Tumor Volume (H526 tumors; Table 56, Day 16, iv weekly, 47-R 0.1 mg/Kg, Compound D 0.5 mg/Kg): 4.0 mm^3
Median Tumor Volume (H526 tumors; Table 56, Day 21, iv weekly, 47-R 0.1 mg/Kg, Compound D 0.5 mg/Kg): 4.0 mm^3
Median Tumor Volume (H526 tumors; Table 56, Day 28, iv weekly, 47-R 0.1 mg/Kg, Compound D 0.5 mg/Kg): 4.0 mm^3
Median Tumor Volume (H526 tumors; Table 56, Day 35, iv weekly, 47-R 0.1 mg/Kg, Compound D 0.5 mg/Kg): 4.0 mm^3
Median Tumor Volume (H526 tumors; Table 56, Day 42, iv weekly, 47-R 0.1 mg/Kg, Compound D 0.5 mg/Kg): 4.0 mm^3
Median Tumor Volume (H526 tumors; Table 56, Day 49, iv weekly, 47-R 0.1 mg/Kg, Compound D 0.5 mg/Kg): 4.0 mm^3
Median Tumor Volume (H526 tumors; Table 56, Day 56, iv weekly, 47-R 0.1 mg/Kg, Compound D 0.5 mg/Kg): 4.0 mm^3
Median Tumor Volume (H526 tumors; Table 56, Day 63, iv weekly, 47-R 0.1 mg/Kg, Compound D 0.5 mg/Kg): 4.0 mm^3
Median Tumor Volume (H526 tumors; Table 56, Day 70, iv weekly, 47-R 0.1 mg/Kg, Compound D 0.5 mg/Kg): 4.0 mm^3
Median Tumor Volume (H526 tumors; Table 56, Day 77, iv weekly, 47-R 0.1 mg/Kg, Compound D 0.5 mg/Kg): 4.0 mm^3
Median Tumor Volume (H526 tumors; Table 56, Day 84, iv weekly, 47-R 0.1 mg/Kg, Compound D 0.5 mg/Kg): 4.0 mm^3
Median Tumor Volume (H526 tumors; Table 56, Day 91, iv weekly, 47-R 0.1 mg/Kg, Compound D 0.5 mg/Kg): 4.0 mm^3
Median Tumor Volume (H526 tumors; Table 56, Day 98, iv weekly, 47-R 0.1 mg/Kg, Compound D 0.5 mg/Kg): 4.0 mm^3
Median Tumor Volume (H526 tumors; Table 56, Day 105, iv weekly, 47-R 0.1 mg/Kg, Compound D 0.5 mg/Kg): 4.0 mm^3
Median Tumor Volume (H526 tumors; Table 56, Day 112, iv weekly, 47-R 0.1 mg/Kg, Compound D 0.5 mg/Kg): 4.0 mm^3
Median Tumor Volume (H526 tumors; Table 56, Day 119, iv weekly, 47-R 0.1 mg/Kg, Compound D 0.5 mg/Kg): 4.0 mm^3
Median Tumor Volume (H526 tumors; Table 56, Day 126, iv weekly, 47-R 0.1 mg/Kg, Compound D 0.5 mg/Kg): 4.0 mm^3
Median Tumor Volume (H526 tumors; Table 56, Day 133, iv weekly, 47-R 0.1 mg/Kg, Compound D 0.5 mg/Kg): 4.0 mm^3
Median Tumor Volume (H526 tumors; Table 56, Day 140, iv weekly, 47-R 0.1 mg/Kg, Compound D 0.5 mg/Kg): 4.0 mm^3
Median Tumor Volume (H526 tumors; Table 56, Day 147, iv weekly, 47-R 0.1 mg/Kg, Compound D 0.5 mg/Kg): 4.0 mm^3
Median Tumor Volume (H526 tumors; Table 56, Day 165, iv weekly, 47-R 0.1 mg/Kg, Compound D 0.5 mg/Kg): 4.0 mm^3
Median Tumor Volume (H526 tumors; Table 56, Day 175, iv weekly, 47-R 0.1 mg/Kg, Compound D 0.5 mg/Kg): 4.0 mm^3
Median Tumor Volume (H526 tumors; Table 56, Day 191, iv weekly, 47-R 0.1 mg/Kg, Compound D 0.5 mg/Kg): 4.0 mm^3
Median Tumor Volume (H526 tumors; Table 56, Day 205, iv weekly, 47-R 0.1 mg/Kg, Compound D 0.5 mg/Kg): 4.0 mm^3

Source: US10538535B2, “Antitumoral compounds” (priority 2017, dated 2020)
